Data on three compounds can be found in patent US20070276025A1, “Indirubin-Type Compounds, Compositions, and Methods for Their Use” (priority 2003, published 2007).

The structures appear in SMILES notation. Where two headings read alike, the source gives them in different places.

In data set [1] the test system is GSK-3α (Tyr276) / GSK-3β (Tyr216). Kind of data set: Tyrosine phosphorylation of GSK-3 in SH-SY5Y cells (Western blot). It is filed as cell-based, human. The following applies: 1 μM, 12 hr. From the text: GSK-3α and GSK-3β activity is enhanced by the phosphorylation of a specific tyrosine residue (Tyr276 and Tyr216, respectively) (Hughes et al. (1993) EMBO J. 12: 803-808; Dajani et al. (2003) EMBO J. 22: 494-501). The tyrosine kinase responsible for this phosphorylation in mammals is unknown, but there is some evidence that it indirectly depends on GSK-3 activity (Bhat et al. (2000) Proc. Natl. Acad. Sci. U.S.A. 97: 11074-11079; Shaw et al. (1997) FEBS Lett. 416: 307-311). […] SH-SY5Y cells were exposed to IO, MeIO, BIO and MeBIO for 12 hr and the phosphorylation of Tyr276 (GSK-3α) and Tyr216 (GSK-3β) was estimated by Western blotting with phospho-specific antibodies. […] This was accompanied by an increased level in total GSK-3β, total β-catenin, and dephospho-&catenin.
In general terms: Immunoblotting shows a protein as a band on a membrane.

In data set [2] the target is T1, erk1 (Homo sapiens, UniProt P27361). Set-up: made in house. The following applies: Table 2, data from Hoessel et al. (1999); cited from earlier work.
T1 sequence (P27361 whole entry, species assumed): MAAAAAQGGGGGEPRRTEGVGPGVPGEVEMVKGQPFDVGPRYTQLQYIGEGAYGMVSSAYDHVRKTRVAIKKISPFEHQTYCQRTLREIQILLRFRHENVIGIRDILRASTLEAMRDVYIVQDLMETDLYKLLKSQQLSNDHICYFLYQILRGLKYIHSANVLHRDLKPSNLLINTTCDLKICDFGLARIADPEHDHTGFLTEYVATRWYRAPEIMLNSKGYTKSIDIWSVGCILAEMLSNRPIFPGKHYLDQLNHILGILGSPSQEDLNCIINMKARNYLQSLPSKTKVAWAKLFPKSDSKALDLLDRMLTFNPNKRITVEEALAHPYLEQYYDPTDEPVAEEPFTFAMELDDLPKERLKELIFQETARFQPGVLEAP
In data set [3] the test system is cGMP-dependent PK. The following applies: Table 2, data from Hoessel et al. (1999); cited from earlier work.
A further data set deals with GSK-3. Kind of data set: β-catenin phosphorylation on GSK-3 specific sites in COS-1 cells (Western blot). The following applies: 5 μM indirubins or 20 mM LiCl, 24 hrs.
Data set [4] concerns MAPKK. The following applies: Table 2, data from Hoessel et al. (1999); cited from earlier work.
Data set [5] relates to 5L (AhR +/+) hepatoma cells. The data set can be described thus: FACS cell cycle analysis, 5L cells. It is filed as cell-based, mouse.
For the next data set, the target named is CDK1/cyclin B. The data set can be described thus: CDK1/cyclin B kinase assay (histone H1, 15 μM ATP). It is filed as biochemical, starfish (Marthasterias glacialis).
The next data set addresses GSK-3α/β. The data set can be described thus: GSK-3α/β kinase assay (GS-1 peptide, 15 μM ATP). Type of data set: biochemical, porcine.
A further data set has as its target protein kinase C η (Homo sapiens, UniProt P24723). The data set can be described thus: protein kinase C η assay. The following applies: read-out: IC50 protein kinase C η; Table 2, 15 μM ATP.
A further data set deals with casein kinase 2. The data set can be described thus: casein kinase 2 assay. The following applies: read-out: IC50 casein kinase 2; Table 2, 15 μM ATP.
A further data set concerns the target AhR (Homo sapiens, UniProt P35869).
The test system of data set [6] is cGMP-dependent PK. The data set can be described thus: cGMP-dependent PK assay. The following applies: read-out: IC50 cGMP-dependent PK; Table 2, 15 μM ATP.
Data set [7] deals with insulin receptor Tyr kinase. Kind of data set: insulin receptor Tyr kinase assay. The following applies: read-out: IC50 insulin receptor Tyr kinase; Table 2, 15 μM ATP.
Data set [8] deals with MAPKK. Kind of data set: MAPKK kinase assay. The following applies: read-out: IC50 MAPKK; Table 2, 15 μM ATP.
In a further data set the target is protein kinase C β2 (Homo sapiens, UniProt P05771). The data set can be described thus: protein kinase C β2 assay. The following applies: read-out: IC50 protein kinase C β2; Table 2, 15 μM ATP.
Chain of protein kinase C β2 (P05771 1-673 isoform P05771-2): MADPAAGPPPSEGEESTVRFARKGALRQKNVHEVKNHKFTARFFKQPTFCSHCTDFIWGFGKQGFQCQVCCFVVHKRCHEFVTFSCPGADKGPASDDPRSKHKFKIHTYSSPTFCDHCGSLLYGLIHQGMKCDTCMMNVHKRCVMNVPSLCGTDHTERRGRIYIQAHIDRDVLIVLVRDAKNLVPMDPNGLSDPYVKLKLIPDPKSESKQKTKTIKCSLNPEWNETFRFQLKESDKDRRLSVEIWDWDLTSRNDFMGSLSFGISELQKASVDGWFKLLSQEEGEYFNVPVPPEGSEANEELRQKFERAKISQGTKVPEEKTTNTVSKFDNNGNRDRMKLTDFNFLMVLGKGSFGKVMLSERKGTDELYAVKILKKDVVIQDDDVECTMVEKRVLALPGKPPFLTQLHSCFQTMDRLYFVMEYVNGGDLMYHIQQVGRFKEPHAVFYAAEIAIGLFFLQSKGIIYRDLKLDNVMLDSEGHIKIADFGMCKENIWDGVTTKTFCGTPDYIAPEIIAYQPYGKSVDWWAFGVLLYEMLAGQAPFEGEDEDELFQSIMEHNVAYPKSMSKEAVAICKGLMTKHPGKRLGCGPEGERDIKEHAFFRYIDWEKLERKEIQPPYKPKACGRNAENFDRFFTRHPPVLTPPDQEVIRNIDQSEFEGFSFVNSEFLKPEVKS
The target in another data set is CDK2/cyclin A (Homo sapiens, UniProt P24941). Kind of data set: CDK2/cyclin A kinase assay. The following applies: read-out: IC50 CDK2/cyclin A; Table 2, 15 μM ATP.
In another data set the target is CDK4/cyclin D1 (Homo sapiens, UniProt P11802). The data set can be described thus: CDK4/cyclin D1 kinase assay. The following applies: read-out: IC50 CDK4/cyclin D1; Table 2, 15 μM ATP.
Chain of CDK4/cyclin D1 (P11802 whole entry, species assumed): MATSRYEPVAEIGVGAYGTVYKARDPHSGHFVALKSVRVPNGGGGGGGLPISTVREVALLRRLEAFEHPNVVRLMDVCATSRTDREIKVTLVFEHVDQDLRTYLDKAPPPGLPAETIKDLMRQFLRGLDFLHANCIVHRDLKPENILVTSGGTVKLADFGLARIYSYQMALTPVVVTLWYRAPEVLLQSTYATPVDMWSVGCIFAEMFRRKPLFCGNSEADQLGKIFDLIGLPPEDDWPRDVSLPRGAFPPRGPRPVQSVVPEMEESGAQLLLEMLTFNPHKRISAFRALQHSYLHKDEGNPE
Chain of CDK4/cyclin D1 (P24385 whole entry partner, species assumed): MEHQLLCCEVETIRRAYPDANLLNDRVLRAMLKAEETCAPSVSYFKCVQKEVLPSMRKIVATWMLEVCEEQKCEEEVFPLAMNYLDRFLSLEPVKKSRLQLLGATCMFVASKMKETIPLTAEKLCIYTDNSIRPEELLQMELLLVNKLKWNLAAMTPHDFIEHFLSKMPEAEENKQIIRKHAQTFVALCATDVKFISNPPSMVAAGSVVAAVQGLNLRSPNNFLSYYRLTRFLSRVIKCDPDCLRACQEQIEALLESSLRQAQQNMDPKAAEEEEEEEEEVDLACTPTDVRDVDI
Data set [9] addresses T1, erk1. The data set can be described thus: erk1 kinase assay. The following applies: read-out: IC50 erk1; Table 2, 15 μM ATP.
The next data set concerns the target protein kinase C α (Homo sapiens, UniProt P17252). The data set can be described thus: protein kinase C α assay. The following applies: read-out: IC50 protein kinase C α; Table 2, 15 μM ATP.
In a further data set the target is protein kinase C β1 (Homo sapiens, UniProt P05771). Kind of data set: protein kinase C β1 assay. The following applies: read-out: IC50 protein kinase C β1; Table 2, 15 μM ATP.
Chain of protein kinase C β1 (P05771 whole entry): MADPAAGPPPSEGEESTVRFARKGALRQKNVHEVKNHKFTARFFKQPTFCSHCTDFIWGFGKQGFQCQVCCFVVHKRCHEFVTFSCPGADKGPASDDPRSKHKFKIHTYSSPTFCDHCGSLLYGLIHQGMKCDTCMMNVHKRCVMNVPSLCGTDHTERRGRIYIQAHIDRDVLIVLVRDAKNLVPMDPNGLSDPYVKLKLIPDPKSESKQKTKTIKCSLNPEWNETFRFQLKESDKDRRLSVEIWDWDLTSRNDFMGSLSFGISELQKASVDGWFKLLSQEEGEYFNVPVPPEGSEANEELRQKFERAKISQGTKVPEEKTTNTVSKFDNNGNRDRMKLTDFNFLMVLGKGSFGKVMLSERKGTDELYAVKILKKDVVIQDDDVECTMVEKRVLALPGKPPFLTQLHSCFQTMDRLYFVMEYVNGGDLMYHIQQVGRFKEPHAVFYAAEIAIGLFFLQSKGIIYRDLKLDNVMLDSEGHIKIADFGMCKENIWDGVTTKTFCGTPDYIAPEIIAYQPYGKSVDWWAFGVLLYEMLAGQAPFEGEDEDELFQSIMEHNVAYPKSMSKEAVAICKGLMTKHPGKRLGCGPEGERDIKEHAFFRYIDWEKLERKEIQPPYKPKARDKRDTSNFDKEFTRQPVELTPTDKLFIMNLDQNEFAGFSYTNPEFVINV
Another data set has as its target erk2 (Homo sapiens, UniProt P28482). The data set can be described thus: erk2 kinase assay. The following applies: read-out: IC50 erk2; Table 2, 15 μM ATP.
[10] abbreviates: Table 1, read-out: IC50 CDK1/cyclin B.
[11] abbreviates: Table 2, 15 μM ATP, read-out: IC50 CDK1/cyclin B.
[12] abbreviates: Table 4, read-out: IC50 CDK1/cycin B.
The mark [13] stands for this setting: Table 5, read-out: IC50 CDK1/cyclin B.
The mark [14] stands for this setting: Table 1, read-out: IC50 GSK-3 α/β.
The mark [15] stands for this setting: Table 2, 15 μM ATP, read-out: IC50 GSK-3α/β.
[16] abbreviates: Table 5, read-out: IC50 GSK-3α/β.
[17] abbreviates: Table 7, GSK-3, read-out: IC50exp.

Chain of protein kinase C η (P24723 whole entry): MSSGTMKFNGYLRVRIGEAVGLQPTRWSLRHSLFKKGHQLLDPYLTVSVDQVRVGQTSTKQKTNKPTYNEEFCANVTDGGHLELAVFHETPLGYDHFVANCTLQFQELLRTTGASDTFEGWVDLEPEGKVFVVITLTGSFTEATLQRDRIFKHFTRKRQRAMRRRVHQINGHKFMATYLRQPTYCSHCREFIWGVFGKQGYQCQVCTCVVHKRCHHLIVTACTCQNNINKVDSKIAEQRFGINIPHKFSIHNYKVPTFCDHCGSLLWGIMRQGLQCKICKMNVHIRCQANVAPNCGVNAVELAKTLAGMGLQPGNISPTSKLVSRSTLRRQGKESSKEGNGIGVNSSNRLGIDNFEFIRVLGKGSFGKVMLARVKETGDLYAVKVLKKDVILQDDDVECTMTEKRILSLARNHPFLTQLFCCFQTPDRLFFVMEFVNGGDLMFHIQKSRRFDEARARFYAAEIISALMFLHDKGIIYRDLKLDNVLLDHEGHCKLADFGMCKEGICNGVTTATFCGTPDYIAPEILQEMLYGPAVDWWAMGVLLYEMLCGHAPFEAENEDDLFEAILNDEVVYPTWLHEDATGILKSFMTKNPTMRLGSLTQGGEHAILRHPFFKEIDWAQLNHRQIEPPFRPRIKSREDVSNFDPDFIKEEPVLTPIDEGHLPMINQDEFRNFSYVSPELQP
Chain of erk2 (P28482 whole entry, species assumed): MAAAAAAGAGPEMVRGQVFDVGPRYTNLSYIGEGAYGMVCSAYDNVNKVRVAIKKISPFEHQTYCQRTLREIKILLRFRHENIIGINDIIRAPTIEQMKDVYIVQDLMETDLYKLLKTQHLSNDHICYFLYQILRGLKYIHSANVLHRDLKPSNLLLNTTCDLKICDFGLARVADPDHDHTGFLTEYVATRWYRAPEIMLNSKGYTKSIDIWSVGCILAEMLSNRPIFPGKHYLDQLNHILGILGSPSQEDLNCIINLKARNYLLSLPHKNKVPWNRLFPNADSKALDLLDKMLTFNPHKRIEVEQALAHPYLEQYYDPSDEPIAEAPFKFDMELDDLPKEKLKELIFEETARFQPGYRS

As to `O=C1Nc2ccccc2/C1=C1/Nc2ccccc2/C1=N\O` [7h, indirubin-3′-oxime], the “level of tyrosine phosphorylation of both GSK-3 isoforms” value in data set [1] is “dramatically reduced”. Besides, the IC50 on erk1 [2] is above 100 µM; with cGMP-dependent PK [3] it was 9 µM; with MAPKK [4], above 100 µM. The “unphosphorylated β-catenin level” value in the data set on GSK-3 is “neither the kinase-inactive MeBIO nor IO, led to a major increase”. Moreover, the “accumulation of 5L cells in G1 phase” value in data set [5] is recorded as “modest (but detectable)”.
As a reminder, the EC50 is the concentration that produces a half-maximal response. `CC(=O)ON=C1C(=C2C(=O)Nc3cc(Br)ccc32)Nc2ccccc21` [8a, 6-Bromoindirubin-3′-acetoxime]: the IC50 at CDK1/cyclin B (setting [10]) was 63 µM; at CDK1/cyclin B (setting [11]) it was 63 µM; at CDK1/cyclin B (setting [12]), 63 µM; at CDK1/cyclin B (setting [13]) it was 63 µM; at GSK-3α/β (setting [14]), 0.01 µM; on GSK-3α/β (setting [15]) it was 0.01 µM. The IC50 on GSK-3α/β (Table 4, read-out: IC50 GSK-3) was 0.01 µM; at GSK-3α/β (setting [16]), 0.01 µM; on GSK-3α/β (setting [17]) it was 0.01 µM; at protein kinase C η, above 10 µM; at casein kinase 2, above 10 µM; with cGMP-dependent PK [6] it was above 10 µM. The IC50 in data set [7] was above 10 µM; on MAPKK [8], above 10 µM; at protein kinase C β2, above 10 µM; on CDK2/cyclin A it was 4.3 µM; on CDK4/cyclin D1 it was above 10 µM; at erk1 [9], above 10 µM. The IC50 on protein kinase C α, at protein kinase C β1 and at erk2 was above 10 µM in each case. The compound further yielded an EC50 on AhR of at least 0.1 µM.
As to `CON=C1C(=C2C(=O)Nc3cc(Br)ccc32)Nc2ccccc21` [9a, 6-Bromoindirubin-3′-methoxime], the IC50 at CDK1/cyclin B (setting [10]) is 3.4 µM; at CDK1/cyclin B (setting [11]), 3.4 µM; on CDK1/cyclin B (setting [12]) it was 3.4 µM; at CDK1/cyclin B (setting [13]), 3.7 µM; on GSK-3α/β (setting [14]), 0.03 µM; on GSK-3α/β (setting [15]), 0.03 µM. Besides, the IC50 at GSK-3α/β (Table 4, read-out: IC50 GSK-3) is 0.03 µM; at GSK-3α/β (setting [16]), 0.03 µM; on GSK-3α/β (setting [17]), 0.03 µM; at protein kinase C η it was above 10 µM; at casein kinase 2 it was 9 µM; in the data set with cGMP-dependent PK [6], above 10 µM. Also, the IC50 in data set [7] is above 10 µM; on MAPKK [8] it was above 10 µM; on protein kinase C β2, above 10 µM; on CDK2/cyclin A it was 15 µM; on CDK4/cyclin D1, above 10 µM; at erk1 [9], above 10 µM. Also, the IC50 at protein kinase C α, on protein kinase C β1 and on erk2 was above 10 µM each time.
